From article PMC7321065, “Discovery of New Schiff Bases Tethered Pyrazole Moiety: Design, Synthesis, Biological Evaluation, and Molecular Docking Study as Dual Targeting DHFR/DNA Gyrase Inhibitors with Immunomodulatory Activity” (Molecules, 2020)
Converted amounts (≈) assume the structure as drawn.

Tests used:
[1] = system: S. aureus ATCC 33591; experiment: Inhibition zone against MDRB, agar plate diffusion; assay type: cell-based
[2] = system: hepatocellular carcinoma cell line (HepG2); experiment: Antiproliferative activity, MTT assay; assay type: cell-based, human; conditions: Homo sapiens, HepG2, 48 h, read-out: IC50 HepG-2
Method: (§1) 3-[4, 5-Dimethyl-2-thiazolyl)-2, 5-diphenyl-2 H-tetrazolium bromide (MTT) protocol is based on the cleavage of the tetrazolium salt by mitochondrial dehydrogenases in viable cells. Cells were dispensed in a 96 well sterile microplate (5 x 10^4 cells/well), and incubated at 37 °C with series of different concentrations, in DMSO, of each tested compound or Doxorubicin ® (positive control) for 48 h in a serum free medium prior to the MTT assay. After incubation, media were carefully removed, 40 µL of MTT (2.5 mg/mL) were added to each well and then incubated for an additional 4 h. The purple formazan dye crystals were solubilized by the addition of 200 µL of DMSO. The absorbance was measured at 590 nm using a SpectraMax® Paradigm® Multi-Mode microplate reader. The relative cell viability was expressed as the mean percentage of viable cells compared to the untreated control cells.
(§2) All experiments were conducted in triplicate and repeated in three different days. All the values were represented as mean ± SD. IC 50s were determined by probit analysis using SPSS software program (SPSS

[3] = system: mammary gland breast cancer cell line (MCF-7); experiment: Antiproliferative activity, MTT assay; assay type: cell-based, human; conditions: Homo sapiens, MCF7, 48 h, read-out: IC50 MCF-7
Method: as §1, §2

[4] = system: Pseudomonas aeruginosa; experiment: Inhibition zone, agar plate diffusion; assay type: cell-based; conditions: read-out: Inhibition zone (IZ)
Method: (§3) Antimicrobial activities of the newly formed Schiff bases (6a–d, 7a–d, 8a–d, and 9a–d) and reference drugs were evaluated against three Gram-positive, three Gram-negative, and two fungi strain at Al-Azhar University, Cairo, Egypt. The inhibition zones (IZ, in mm ± standard deviation) and the minimal inhibitory concentration (MIC) (μg/mL) were determined by the conventional paper disk diffusion method.
(§4) In Vitro Antimicrobial Activities
(§5) The antimicrobial activities inhibition zone (IZ, mm±standard deviation) of pyrazole Schiff bases ( 6a-d , 7a-d, 8a-d and 9a-d ) was measurement according to the agar plate diffusion method. Briefly, 100 µl of the […]
(§6) […] of each sample (at 0.5 mg/mL) was added to each well (10 mm diameter holes cut in the agar gel). The plates were incubated for 24 h at 37 °C (for bacteria and yeast) and for 72 h at 27 °C (for filamentous fungi), each test was repeated three times. After incubation, the microorganism's growth was observed. […]
(§7) drugs while Amphotericin B was used as standard antifungal drug. The resulting inhibition zone diameters were measured in millimeters and used as criterion for the antimicrobial activity. Solvent controls (DMSO) were included in every experiment as negative controls. DMSO was used for dissolving […]
(§8) the tested microorganisms. […]

[5] = system: Bacillus subtilis; experiment: Inhibition zone, agar plate diffusion; assay type: cell-based; conditions: read-out: Inhibition zone (IZ)
Method: as §3, §4, §5, §6, §7, §8

[6] = system: Escherichia coli; experiment: Inhibition zone, agar plate diffusion; assay type: cell-based; conditions: read-out: Inhibition zone (IZ)
Method: as §3, §4, §5, §6, §7, §8

[7] = system: Enterococcus faecalis; experiment: Inhibition zone, agar plate diffusion; assay type: cell-based; conditions: read-out: Inhibition zone (IZ)
Method: as §3, §4, §5, §6, §7, §8

[8] = system: Fusarium oxysporum; experiment: Inhibition zone, agar plate diffusion; assay type: cell-based; conditions: read-out: Inhibition zone (IZ)
Method: as §3, §4, §5, §6, §7, §8
(§9) Bacteria were grown on nutrient agar medium, while fungi and yeast were grown on Sabouraud agar medium. […]

[9] = system: Salmonella typhi; experiment: Inhibition zone, agar plate diffusion; assay type: cell-based; conditions: Salmonella enterica, St, mm ± standard deviation, sample at 0.5 mg/mL, read-out: Inhibition zone (IZ)
Method: as §3, §4, §5, §6, §7, §8, §9

[10] = system: Candida albicans; experiment: Inhibition zone, agar plate diffusion; assay type: cell-based; conditions: read-out: Inhibition zone (IZ)
Method: as §3, §4, §5, §6, §7, §8, §9

[11] = system: Staphylococcus aureus; experiment: Inhibition zone, agar plate diffusion; assay type: cell-based; conditions: read-out: Inhibition zone (IZ)
Method: as §3, §4, §5, §6, §7, §8, §9

[12] = system: P. aeruginosa ATCC BAA-2111; experiment: Inhibition zone against MDRB, agar plate diffusion; assay type: cell-based
[13] = system: Fusarium oxysporum; experiment: MIC/MFC, paper disk diffusion; assay type: cell-based; conditions: Fusarium oxysporum
Method: as §3
(§10) In Vitro Antimicrobial Activities […]
(§11) DMSO was used for dissolving […]
(§12) the tested microorganisms.
(§13) The minimum inhibitory concentration (MIC), the minimum bactericidal concentration (MBC, µg/ml) and […]
(§14) and 9b) were determined by the conventional technique termed paper disk diffusion, by applying paper […]
(§15) Bacteria were grown on nutrient agar medium, while fungi and yeast were grown on Sabouraud agar medium. The purified streptomycin was dissolved in […]
(§16) inoculated with test organism. Growth inhibition was examined after 24 hr. from incubation at 37 °C for bacteria and after 72 hr. incubation at 27 °C for fungi and yeast. Each test was repeated three times. MIC was expressed as the lowest concentration inhibiting test organism’s growth. […]

[14] = system: Candida albicans; experiment: MIC/MFC, paper disk diffusion; assay type: cell-based; conditions: Candida albicans
Method: as §3, §10, §11, §12, §13, §14, §15, §16

[15] = system: S. aureus ATCC 43300 (MRSA); experiment: MIC/MBC against MDRB, paper disk diffusion; assay type: cell-based; conditions: Staphylococcus aureus
Source text: (§17) The inhibition zone (IZ, mm±standard deviation) of pyrazole Schiff bases ( 6b, 7b, 7c, 8a, 8d and 9b) was
(§18) measurement according to the agar plate diffusion method against a panel of multidrug-resistant bacteria
(MDRB). […]

[16] = system: P. aeruginosa ATCC BAA-2111; experiment: MIC/MBC against MDRB, paper disk diffusion; assay type: cell-based; conditions: Pseudomonas aeruginosa, ATCCBAA2111
Source text: as §17, §18
(MDRB). […]

[17] = system: E. coli ATCC BAA-196; experiment: MIC/MBC against MDRB, paper disk diffusion; assay type: cell-based; conditions: Escherichia coli, ATCCBAA196
Source text: as §17, §18
(MDRB). […]

[18] = system: S. aureus ATCC 33591; experiment: MIC/MBC against MDRB, paper disk diffusion; assay type: cell-based; conditions: Staphylococcus aureus, ATCC33591
Source text: as §17, §18
(MDRB). […]

[19] = system: S. aureus ATCC 43300 (MRSA); experiment: Inhibition zone against MDRB, agar plate diffusion; assay type: cell-based
[20] = system: Pseudomonas aeruginosa; experiment: MIC/MBC, paper disk diffusion; assay type: cell-based; conditions: Pseudomonas aeruginosa
Method: as §3, §10, §11, §12, §13, §14, §15, §16

[21] = system: Bacillus subtilis; experiment: MIC/MBC, paper disk diffusion; assay type: cell-based
Method: as §3, §10, §11, §12, §13, §14, §15, §16

[22] = system: Salmonella typhi; experiment: MIC/MBC, paper disk diffusion; assay type: cell-based; conditions: Salmonella enterica, S. typhi
Method: as §3, §10, §11, §12, §13, §14, §15, §16

[23] = system: Escherichia coli; experiment: MIC/MBC, paper disk diffusion; assay type: cell-based; conditions: Escherichia coli
Method: as §3, §10, §11, §12, §13, §14, §15, §16

[24] = system: Enterococcus faecalis; experiment: MIC/MBC, paper disk diffusion; assay type: cell-based
Method: as §3, §10, §11, §12, §13, §14, §15, §16

[25] = system: Staphylococcus aureus; experiment: MIC/MBC, paper disk diffusion; assay type: cell-based; conditions: Staphylococcus aureus
Method: as §3, §10, §11, §12, §13, §14, §15, §16

[26] = system: E. coli ATCC BAA-196; experiment: Inhibition zone against MDRB, agar plate diffusion; assay type: cell-based

COc1ccc(Nc2n[nH]c(N=Cc3ccc(N4CCCCC4)cc3)c2C(=O)Nc2ccc(Cl)cc2)cc1 [8d, N-(p-Chlorophenyl)-3-(p-methoxyphenylamino)-5-(4-(piperidin-1-yl)benzylideneamino)-1H-pyrazole-4-carboxamide]
Mean Diameter of Inhibition Zone against MDRB [1]: 21 ± 0.23 mm
IC50 [2]: 2.63 ± 0.44 µM
IC50 [3]: 3.69 ± 0.22 µM
zone of inhibition at 500 µg/mL [4]: 21 ± 0.2 mm
zone of inhibition at 500 µg/mL [5]: 24 ± 0.5 mm
zone of inhibition at 500 µg/mL [6]: 26 ± 0.11 mm
zone of inhibition at 500 µg/mL [7]: 23 ± 0.65 mm
zone of inhibition at 500 µg/mL [8]: 21 ± 0.16 mm
zone of inhibition at 500 µg/mL [9]: 23 ± 0.65 mm
zone of inhibition at 500 µg/mL [10]: 25 ± 0.33 mm
zone of inhibition at 500 µg/mL [11]: 25 ± 0.77 mm
Mean Diameter of Inhibition Zone against MDRB [12]: 25 ± 0.99 mm
MFC [13]: 56.2 µg/mL (≈ 106 µM)
MIC [13]: 31.2 µg/mL (≈ 59.1 µM)
MFC [14]: 17.6 µg/mL (≈ 33.2 µM)
MIC [14]: 9.25 µg/mL (≈ 17.5 µM)
MBC [15]: 31.2 µg/mL (≈ 59.1 µM)
MIC [15]: 15.6 µg/mL (≈ 29.5 µM)
MBC [16]: 11.9 µg/mL (≈ 22.4 µM)
MIC [16]: 6.25 µg/mL (≈ 11.8 µM)
MBC [17]: 31.2 µg/mL (≈ 59.1 µM)
MIC [17]: 15.6 µg/mL (≈ 29.5 µM)
MBC [18]: 7.41 µg/mL (≈ 14 µM)
MIC [18]: 3.9 µg/mL (≈ 7.37 µM)
Mean Diameter of Inhibition Zone against MDRB [19]: 18 ± 0.5 mm
MIC [20]: 27.8 µg/mL (≈ 52.5 µM)
MBC ([20]; P. aeruginosa): 55.5 µg/mL (≈ 105 µM)
Fold more potent than Tetracycline (MIC) ([21]; B. subtilis): 8 fold
MIC ([21]; Bacillus subtilis): 3.9 µg/mL (≈ 7.37 µM)
MBC ([21]; Bacillus subtilis, B. subtilis): 6.63 µg/mL (≈ 12.5 µM)
MIC [22]: 18.5 µg/mL (≈ 35 µM)
MBC ([22]; read-out: MBC): 36.5 µg/mL (≈ 69 µM)
MIC [23]: 7.81 µg/mL (≈ 14.8 µM)
MBC ([23]; E. coli): 15.6 µg/mL (≈ 29.5 µM)
MIC [24]: 15.6 µg/mL (≈ 29.5 µM)
MBC ([24]; E. faecalis): 31.2 µg/mL (≈ 59.1 µM)
MIC [25]: 7.81 µg/mL (≈ 14.8 µM)
MBC ([25]; S. aureus): 15.6 µg/mL (≈ 29.5 µM)
Mean Diameter of Inhibition Zone against MDRB [26]: 16 ± 0.11 mm
